Test results from patent US11123408B2, “Compositions and methods for treating nonsteroidal anti-inflammatory drug (NSAID) associated coagulopathy, thrombocytopenia, glanzmann's thrombasthenia, and/or thrombosis” (YALE UNIVERSITY, priority 2011, dated 2021).
“Also recorded” adds a separate entry of the source.

Experiments:
[1] = tested on: platelets in platelet rich plasma; experiment: Lumi aggregometry (extracellular ATP, dense granule release) simultaneously with LTA; format: cell-based, human
Experimental: (§1) Whole blood from healthy voluntary donors was collected in accordance with an IRB-approved protocol into blue top vacutainer tubes containing 3.2% sodium citrate. Blood was centrifuged at 1000 RPM for 10 minutes at room temperature to collect platelet rich plasma (PRP). PRP in the supernatant was then transferred to fresh tubes, and the remainder of the specimen was centrifuged at 4000 RPM for 10 minutes to obtain platelet poor plasma (PPP). PRP was adjusted to a final platelet count of 250×10^6 platelets/mL with autologous PPP for use in aggregation studies. Potential donors were excluded if there was a history of a bleeding disorder or current anticoagulant use and donors were instructed to avoid NSAIDs for at least 7 days prior to donation. Approval for the human subjects involved in this research was sought and granted by the Committee for the Protection of Human Subjects, Dartmouth-Hitchcock Medical Center, where these studies were conducted in accordance with the Declaration of Helsinki.
(§2) Light transmission (i.e., optical) and lumi aggregometry were performed on up to four samples from the same individual simultaneously with a Chrono-Log Model 700 Whole Blood/Optical Lumi Aggregometer (Chrono-Log Corporation, Havertown, Pa.) using procedures provided by the manufacturer that are briefly summarized here.
(§3) Platelet aggregation was determined by measuring the change in light transmittance of stirred PRP over time after addition of various agonists. Prior to each experiment the aggregometer was standardized to reflect 100% and 0% light transmittance with PPP and PRP, respectively, from the donor whose platelets were used in each specific experiment. 500 μL PRP was added to cuvettes containing a magnetic stir bar and allowed to pre-warm to 37° C. in the aggregometer wells for 3 minutes prior to initiating aggregation reactions which were then conducted at 37° C. Aggregation reactions were initiated by direct addition of agonists and/or enzymes to warmed, stirred PRP, and were monitored for an increase in light transmittance for 10 minutes. The increase in light transmittance is directly proportional to the amount of aggregation and is amplified and digitized into a computer (HP Compaq, Hewlett-Packard, Palo Alto, Calif.) with the AGGRO/LINK8 for Windows software (Chrono-Log Corporation, Havertown, Pa.) to generate aggregation curves. […] The platelet aggregometry experiments for all concentrations of MRS 2395 (including the 0 μM point) were conducted with the plasma adjusted to a final concentration of 10% DMSO to solubilize the inhibitor.
In a subgroup of experiments, lumi aggregometry was used to assay the levels of extracellular ATP simultaneously with LTA. Lumi aggregometry measures ATP in the extracellular space over time using a sensitive luminescent assay employing firefly luciferin-luciferase (CHRONO-LUME™ reagent, Chrono-Log Corporation, Havertown, Pa.). ATP binds to luciferin-luciferase and generates light that is then amplified by a high-gain photomultiplier tube in the lumi aggregometer and is measured simultaneously with the optical change in light transmittance caused by platelet aggregation. In experiments in which lumi aggregometry was performed, 450 μL of PRP was transferred to cuvettes containing magnetic stir bars and allowed to pre-warm to 37° C. in the aggregometer wells for 3 minutes. […] Reactions were initiated by the addition of agonists and/or enzymes to warmed PRP and CHRONOLUME′ reagent and were monitored for light generation. […]

[2] = tested on: platelets in platelet rich plasma; experiment: Light transmission aggregometry (LTA) in platelet rich plasma; format: cell-based, human; settings: for inhibition of NPP4/Ap3A-promoted platelet aggregation (qualitative): increasing antagonist concentrations; for platelet aggregation response of enzyme in the presence of 80 μM Ap3A (qualitative): enzyme 50-200 nM
Experimental: as §1, §2, §3

[3] = Diadenosine polyphosphate cleavage (linked assay, HPLC, absorbance); format: biochemical; settings: HPLC or absorbance / real time spectrophotometric assay
Experimental: NPP4 nucleotide substrates were identified by directly detecting the free phosphate (Pi) product using malachite green (ADP substrate) or by a linked hydrolysis assay with alkaline phosphatase combined with malachite green (lipid substrates and nucleotide substrates without terminal P1) to measure released Pi. 50 μM substrate P1 equivalents (e.g. 25 μM ADP) were treated with 50 nM NPP4 for 1 hr 37 min (lipids) or 3 hr 15 min (all other substrates). For substrates without terminal phosphates, 10 units of calf intestinal alkaline phosphatase (M0290S, 10,000 units/mL, New England Biolabs, Ipswich, Mass.) was added for a final reaction volume of 50 μL. […] The amount of phosphate released was measured by absorbance at 620 nm by a Biotek Synergy Mx plate reader (Winooski, Vt.) in 96-well plates (3679, Corning Inc., Corning, N.Y.) and compared against a phosphate standard curve.
The kinetics of the steady state Ap3A/Ap4A cleavage by NPP4 was measured from time courses of absorbance change at 259 nm using a UV spectrophotometer with a 0.1 cm optical path length cuvette or a stopped-flow device with a 0.2 cm optical path length cell. […] The substrate concentrations higher than 800 μM have absorption too high to be measured by a UV spectrophotometer and stopped-flow, and were therefore measured by HPLC. […]

[4] = Ap3A hydrolysis by NPP enzymes (linked malachite green assay, absorbance change at 259 nm, HPLC); format: biochemical; settings: linked assay or steady state enzymatic studies
Experimental: NPP4 nucleotide substrates were identified by directly detecting the free phosphate (Pi) product using malachite green (ADP substrate) or by a linked hydrolysis assay with alkaline phosphatase combined with malachite green (lipid substrates and nucleotide substrates without terminal P1) to measure released Pi. 50 μM substrate P1 equivalents (e.g. 25 μM ADP) were treated with 50 nM NPP4 for 1 hr 37 min (lipids) or 3 hr 15 min (all other substrates). For substrates without terminal phosphates, 10 units of calf intestinal alkaline phosphatase (M0290S, 10,000 units/mL, New England Biolabs, Ipswich, Mass.) was added for a final reaction volume of 50 μL. 100 μL of malachite green (BIOMOL GREEN™, Enzo Life Sciences, Plymouth Meeting, Pa.) was added to quench the reactions. The amount of phosphate released was measured by absorbance at 620 nm by a Biotek Synergy Mx plate reader (Winooski, Vt.) in 96-well plates (3679, Corning Inc., Corning, N.Y.) and compared against a phosphate standard curve.
The kinetics of the steady state Ap3A/Ap4A cleavage by NPP4 was measured from time courses of absorbance change at 259 nm using a UV spectrophotometer with a 0.1 cm optical path length cuvette or a stopped-flow device with a 0.2 cm optical path length cell. The enzymology reactions in 50 mM Tris pH 8.0, 140 mM NaCl, 5 mM KCl, 1 mM MgCl2 and 1 mM CaCl2 were started by addition of 1 μM NPP4 to varying concentrations of Ap3A/Ap4A (up to 800 μM) solution (UV spectrophotometer) or by rapid mixing of NPP4 and Ap3A/Ap4A (stopped-flow). The substrate concentrations higher than 800 μM have absorption too high to be measured by a UV spectrophotometer and stopped-flow, and were therefore measured by HPLC. […] Therefore, the rate of a product production or enzyme turnover measured by the absorption change assay can be calculated by the rate of absorption change
[formula] according to the following formula;
[formula] where Δl is optical path length. The following absorption coefficients were used: Ap3A: 25.75 mM^−1 cm^−1. Ap4A: 25.4 mM^−1 cm^−1. AMP, ADP, and ATP: 15.4 mM^−1 cm^−1. ADP Receptor Inhibitor Assay for NPP4 Inhibition
The HPLC protocol used to measure Ap3A/Ap4A cleavage by NPP4 and for product identification is modified from that of Stocchi et al. (1985, Anal Biochem 146:118-24). The reactions containing varying concentrations of Ap3A/Ap4A in the same buffer as in the absorbance change assay were started by addition of 0.2-1 μM NPP4 and quenched at various time points by equal volume of 3 M formic acid, or 0.5 N KOH and re-acidified by glacial acetic acid to pH 6. The quenched reaction solution was diluted systematically and loaded a HPLC system (Waters, Milford Mass.) and substrates and products were monitored by UV absorbance at 254 or 259 nm. Substrates and products were separated on a C18, 5 μm 250×4.6 mm HPLC column (Higgins Analytical, Mountain View, Calif.), using 15 mM ammonium acetate pH 6.0 solution, with a 0% to 10% (or 20%) methanol gradient. The products and substrate were quantified according to the integration of their correspondent peaks and the formula:
[formula] where [substrate]0 is the initial substrate concentration. The extinction coefficients of Ap3A, Ap4A, AMP, ADP and ATP used in the formula were the same as those used in absorption change assay. If monitoring at 254 nm, substrate and product standards run on the same day as the reactions were used to convert integrated product/substrate peak areas to concentrations. […]

## Nc1ncnc2c1ncn2[C@@H]1O[C@H](COP(=O)(O)OP(=O)(O)OP(=O)(O)OP(=O)(O)OC[C@H]2O[C@@H](n3cnc4c(N)ncnc43)[C@H](O)[C@@H]2O)[C@@H](O)[C@H]1O [Ap4A]
[1]; 40 μM Ap4A with 100 nM NPP4
  platelet aggregation and granule release, Ap4A with NPP4 (qualitative): no measurable platelet aggregation; also recorded: no platelet aggregation and no granule release
[2]; 80 μM Ap4A added to 100 nM NPP4 and 80 μM Ap3A
  effect of Ap4A on Ap3A/NPP4-induced platelet aggregation: roughly half of the aggregation; also recorded: intermediate degree of platelet aggregation
[2]; 80 μM Ap4A alone or in the presence of 100 nM NPP4
  platelet aggregation response to Ap4A (qualitative): no apparent positive effect on aggregation; also recorded: does not trigger even a primary wave of aggregation

## CNc1ncnc2c1ncn2[C@H]1C[C@H](OP(=O)(O)O)[C@@H](COP(=O)(O)O)O1 [MRS 2179]
[2]; 50 nM NPP4, 80 μM Ap3A
  inhibition of NPP4/Ap3A-promoted platelet aggregation (qualitative): concentration-dependent inhibition of platelet aggregation; also recorded: dose-dependent inhibition of the platelet aggregation response

## CNc1nc(Cl)nc2c1ncn2CC(COC(=O)C(C)(C)C)COC(=O)C(C)(C)C [MRS 2395]
[2]; 50 nM NPP4, 80 μM Ap3A
  inhibition of NPP4/Ap3A-promoted platelet aggregation (qualitative): concentration-dependent inhibition of platelet aggregation; also recorded: dose-dependent inhibition of the platelet aggregation response
[2]; 200 μM antagonist, 50 nM NPP4, 80 μM Ap3A, 10% DMSO
  inhibition of NPP4/Ap3A-promoted platelet aggregation at 200 μM: complete inhibition

## diadenosine triphosphate [Ap3A]
[1]; 40 μM Ap3A alone in PRP
  platelet aggregation and luminescence, Ap3A alone (qualitative): primary wave of aggregation, followed by rapid disaggregation
[2]; 100 nM NPP4, dose response of Ap3A
  platelet aggregation response to Ap3A in the presence of 100 nM NPP4 (qualitative): induces both the primary and secondary waves of aggregation in a concentration-dependent fashion; also recorded: robust platelet aggregation
[2]; 40 μM Ap3A in the presence of 100 nM NPP4
  maximum aggregation: 70%
[2]; Ap3A 80 μM or higher in the presence of 100 nM NPP4
  maximum aggregation: greater than 80%
[2]; agent alone in PRP (Ap3A up to 160 μM; NPP4 100 nM)
  platelet aggregation response, agent alone (qualitative): triggers a primary wave of aggregation without degranulation, followed by rapid disaggregation; also recorded: only a primary wave of aggregation followed by rapid platelet disaggregation; also recorded: triggers a primary wave of aggregation, which is followed by rapid disaggregation

B1: NPP4-T70A: inactive mutant NPP4 extracellular domain, catalytic threonine 70 mutated to alanine (protein, UniProt Q9Y6X5 16-407, looked up, variant T70A)
extracellular domain: FRSDSSSSLPPKLLLVSFDGFRADYLKNYEFPHLQNFIKEGVLVEHVKNVFITKAFPNHYSIVTGLYEESHGIVANSMYDAVTKKHFSDSNDKDPFWWNEAVPIWVTNQLQENRSSAAAMWPGTDVPIHDTISSYFMNYNSSVSFEERLNNITMWLNNSNPPVTFATLYWEEPDASGHKYGPEDKENMSRVLKKIDDLIGDLVQRLKMLGLWENLNVIITSDHGMTQCSQDRLINLDSCIDHSYYTLIDLSPVAAILPKINRTEVYNKLKNCSPHMNVYLKEDIPNRFYYQHNDRIQPIILVADEGWTIVLNESSQKLGDHGYDNSLPSMHPFLAAHGPAFHKGYKHSTINIVDIYPMMCHILGLKPHPNNGTFGHTKCLLVDQWCINLPEA
modifications: extracellular domain
[1]; 100 nM enzyme with 40 μM Ap3A
  platelet aggregation and dense granule (ATP) release, enzyme with Ap3A (qualitative): A similar pattern is observed
[2]
  platelet aggregation response of enzyme in the presence of 80 μM Ap3A (qualitative): fails to induce aggregation
[2]; listed as T70A mutant of NPP4
  platelet aggregation response of enzyme in the presence of 80 μM Ap3A (qualitative): no effect on platelet aggregation
[3]
  diadenosine polyphosphate cleavage (qualitative): did not cleave diadenosine polyphosphates
[4]
  Ap3A cleavage / hydrolysis (qualitative): incapable of Ap3A hydrolysis
